In ChEMBL document CHEMBL4673200, “Hydride-induced Meisenheimer complex formation reflects activity of nitro aromatic anti-tuberculosis compounds” (RSC Med Chem, 2021):
pIC50: −log10 of the molar value. Values after ≈ are worked out from the molar mass of the structure shown. Active and inactive are the calls of the source. The rule behind the calls is not given here.

Columns and labels:
Vero = test: Cytotoxicity against African green monkey Vero cells assessed by reduction in cell viability incubated for 72 hrs by resazurin dye fluorescence based assay; settings: Chlorocebus sabaeus
Mycolicibacterium vaccae = test: Antitubercular activity against Mycobacterium vaccae assessed as reduction in bacterial growth incubated for 42 hrs by broth microdilution assay; format: functional
[1] = system: Mycobacterium tuberculosis; test: Antitubercular activity against Mycobacterium tuberculosis H37Rv ATCC 27294 cultured in 7H12 media assessed as reduction in bacterial growth incubated for 7 days by resazurin dye fluorescence based assay; format: functional; settings: H37Rv ATCC 27294, 168 h, time 7 day
Mycolicibacterium aurum = test: Antitubercular activity against Mycobacterium aurum assessed as reduction in bacterial growth incubated for 42 hrs by broth microdilution assay; format: functional
[2] = system: Mycobacterium tuberculosis; test: Antitubercular activity against Mycobacterium tuberculosis H37Rv ATCC 27294 cultured in GAS media assessed as reduction in bacterial growth incubated for 7 days by resazurin dye fluorescence based assay; format: functional; settings: H37Rv ATCC 27294, 168 h, time 7 day
[3] = biological target: T1, Decaprenylphosphoryl-beta-D-ribose oxidase (Mycobacterium tuberculosis (strain ATCC 25618 / H37Rv)) (UniProt P9WJF1); test: Inhibition of reactivation of Mycobacterium tuberculosis H37Rv DprE1 at 100 times of MIC incubated for 24 hrs by [14C]-acetate radioligand based thin layer chromatography
T1 sequence (whole entry): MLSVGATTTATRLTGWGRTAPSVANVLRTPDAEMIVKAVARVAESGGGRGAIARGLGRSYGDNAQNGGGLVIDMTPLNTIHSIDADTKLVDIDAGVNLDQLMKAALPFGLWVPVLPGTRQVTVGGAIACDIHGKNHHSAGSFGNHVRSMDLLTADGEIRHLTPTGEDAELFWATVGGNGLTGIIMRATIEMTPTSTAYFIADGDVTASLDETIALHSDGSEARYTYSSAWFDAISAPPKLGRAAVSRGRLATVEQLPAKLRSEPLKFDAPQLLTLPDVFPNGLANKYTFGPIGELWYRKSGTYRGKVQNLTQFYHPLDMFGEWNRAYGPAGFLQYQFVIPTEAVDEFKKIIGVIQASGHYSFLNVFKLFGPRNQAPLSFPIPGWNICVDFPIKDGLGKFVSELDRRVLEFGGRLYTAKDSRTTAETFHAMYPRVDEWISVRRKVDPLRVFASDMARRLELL

[4] = biological target: T1, Decaprenylphosphoryl-beta-D-ribose oxidase (Mycobacterium tuberculosis (strain ATCC 25618 / H37Rv)); test: Inhibition of Mycobacterium tuberculosis H37Rv DprE1 at 100 times of MIC incubated for 24 hrs by [14C]-acetate radioligand based thin layer chromatography

Row | Compound | pIC50 (Vero) | MIC (Mycolicibacterium vaccae) | MIC [1] | MIC (Mycolicibacterium aurum) | MIC [2] | inhibition [3] | inhibition [4]
1 | O=C(NCc1ccc2c(c1)CCO2)c1sc2c([N+](=O)[O-])cc(C(F)(F)F)cc2[n+]1[O-] | < 4.00 | < 0.001 µM | 0.01 µM (≈ 0.00439 µg/mL) | > 1 µM | < 0.002 µM |  | 
2 | N#Cc1cc([N+](=O)[O-])ccc1NC1CC1 | < 4.00 |  | > 5 µM |  | > 5 µM |  | 
3 | N#Cc1cc([N+](=O)[O-])ccc1N1CCC(Cc2ccccc2)CC1 | < 4.00 |  | > 5 µM |  | 2 µM (≈ 0.643 µg/mL) |  | 
4 | N#Cc1cc([N+](=O)[O-])ccc1NCc1ccccn1 | < 4.00 |  | > 5 µM |  | > 5 µM |  | 
5 | N#Cc1cc([N+](=O)[O-])ccc1Oc1ccc(Cl)c(Cl)c1 | < 4.30 |  | > 50 µM |  | 45 µM (≈ 13.9 µg/mL) |  | 
6 | O=C(NCc1ccc(N2CCC(c3ccc(OC(F)(F)F)cc3)CC2)cc1)c1nc2cc(C(F)(F)F)cc([N+](=O)[O-])c2s1 | < 4.00 | 0.125 µM (≈ 0.0781 µg/mL) | 0.24 µM (≈ 0.15 µg/mL) | > 1 µM | 0.13 µM (≈ 0.0812 µg/mL) | inactive | Active
7 | C[C@H]1COC2(CCN(c3nc(=O)c4cc(C(F)(F)F)cc([N+](=O)[O-])c4s3)CC2)O1 [BTZ-043] | < 4.00 | < 0.001 µM | < 0.004 µM | > 1 µM | < 0.004 µM |  | Active
8 | O=c1nc(N2CCN(CC3CCCCC3)CC2)sc2c([N+](=O)[O-])cc(C(F)(F)F)cc12 |  |  |  |  |  |  | Active
9 | N#Cc1cc([N+](=O)[O-])ccc1Nc1ccc(OC2CCNCC2)cc1 | < 4.00 |  | > 5 µM |  | > 5 µM |  | 
10 | N#Cc1cc([N+](=O)[O-])ccc1NCc1cccc(F)c1 | < 4.00 |  | > 5 µM |  | 5 µM (≈ 1.36 µg/mL) |  | 
11 | CC(C)(C)OC(=O)N1CCC(Oc2ccc(Nc3ccc([N+](=O)[O-])cc3C#N)cc2)CC1 | < 4.00 |  | > 5 µM |  | 3 µM (≈ 1.32 µg/mL) |  | 
12 | N#Cc1cc([N+](=O)[O-])ccc1N1CCN(c2ccc(C(F)(F)F)cc2)CC1 | < 4.00 |  | > 5 µM |  | 5 µM (≈ 1.88 µg/mL) |  | 
13 | C[C@H]1COC2(CCN(C(=O)c3sc4c([N+](=O)[O-])cc(C(F)(F)F)cc4[n+]3[O-])CC2)O1 | 4.10 | 0.015 µM (≈ 0.00671 µg/mL) | 0.23 µM (≈ 0.103 µg/mL) | > 1 µM | 0.24 µM (≈ 0.107 µg/mL) |  | Active
14 | COc1ccc(CNC(=O)c2sc3c([N+](=O)[O-])cc(C(F)(F)F)cc3[n+]2[O-])cc1 | 4.12 | < 0.001 µM | 0.01 µM (≈ 0.00427 µg/mL) | > 1 µM | 0.01 µM (≈ 0.00427 µg/mL) |  | 
15 | C[C@H]1COC2(CCN(c3ccc([N+](=O)[O-])cc3C#N)CC2)O1 | < 4.00 |  | 2.4 µM (≈ 0.728 µg/mL) |  | 2 µM (≈ 0.607 µg/mL) |  | 
16 | CC(Nc1ccc([N+](=O)[O-])cc1C#N)c1ccc(Cl)cc1 (stereo not given) | 4.54 |  | > 5 µM |  | 5 µM (≈ 1.51 µg/mL) |  | 
17 | O=C(NCc1ccc(N2CCC(c3ccc(OC(F)(F)F)cc3)CC2)cc1)c1sc2c([N+](=O)[O-])cc(C(F)(F)F)cc2[n+]1[O-] | 4.09 | 0.02 µM (≈ 0.0128 µg/mL) | 0.025 µM (≈ 0.016 µg/mL) | > 1 µM | 0.07 µM (≈ 0.0448 µg/mL) |  | 
18 | COc1ccc(CNc2ccc([N+](=O)[O-])cc2C#N)cc1 | < 4.00 |  | > 5 µM |  | > 5 µM |  | 
19 | O=[N+]([O-])c1cn2c(n1)OC[C@@H](OCc1ccc(OC(F)(F)F)cc1)C2 [PRETOMANID] | < 4.00 |  | 0.08 µM (≈ 0.0287 µg/mL) |  | 0.2 µM (≈ 0.0719 µg/mL) |  | 
20 | NC(=O)c1sc2c([N+](=O)[O-])cc(C(F)(F)F)cc2[n+]1[O-] [CYCLAPOLIN 9] |  |  | 1.2 µM (≈ 0.369 µg/mL) |  | 2.19 µM (≈ 0.673 µg/mL) |  | 
21 | CCc1nc2ccc(Cl)cn2c1C(=O)NCc1ccc(N2CCC(c3ccc(OC(F)(F)F)cc3)CC2)cc1 [TELACEBEC] | < 4.00 | 0.004 µM (≈ 0.00223 µg/mL) | 0.03 µM (≈ 0.0167 µg/mL) | > 1 µM | 0.007 µM (≈ 0.0039 µg/mL) |  | 
22 | N#Cc1cc([N+](=O)[O-])ccc1-n1cnc2c(N)ncnc21 | < 4.00 |  | > 5 µM |  | > 5 µM |  | 
23 | CCOC(=O)c1sc2c([N+](=O)[O-])cc(C(F)(F)F)cc2[n+]1[O-] |  |  | > 5 µM |  | 4.97 µM (≈ 1.67 µg/mL) |  | 
24 | COc1ccc(CNC(=O)c2nc3cc(C(F)(F)F)cc([N+](=O)[O-])c3s2)cc1 | < 4.00 | 0.008 µM (≈ 0.00329 µg/mL) | 0.7 µM (≈ 0.288 µg/mL) | > 1 µM | 0.14 µM (≈ 0.0576 µg/mL) | inactive | Active
